Results on one molecule are retold here after patent publication US8617528B2, “Compositions and methods for stabilizing ingredients using 2,4-pentanedione compounds” (Sytheon Ltd., priority 2010, dated 2013).

A short description of data set [1]: Photostability of sunscreen formulation under sun simulator. To be noted: 2% stabilizer in sunscreen with 2% butyl methoxydibenzoylmethane. As to the method: Samples of each solution were prepared as ultrathin films between two quartz plates so as to obtain a minimum of 90% light transmission over the entire spectrum range of non absorbing chromophores. For example, ingredients which absorb only in the UV range were tested in formulation to obtain a minimum of 90% light transmission over the visible range. Each sample was then irradiated under sun simulator (754 W/m^2, 2 MED/h, UV dose from 20 to 100 Joules/cm^2) for various durations and light absorption spectra recorded for each sample at given times. The maximal absorption band λmax of each solution was determined before and after irradiation. The amount of the photosensitive materials remaining in solution after irradiation was calculated as the ratio of their two maximal absorptions.
Three samples of this were taken for photostability testing according to the method of Example 6 above. The first sample, the Control, was not modified whereas the two remaining samples were modified by incorporating therein 2% of the compound of Example 1, HSS, and 4% octocrylene, respectively. The three formulations were prepared by first preparing each of Phase A1 and A2 and then dispersing Phase A2 in Phase A1 with agitation and heating to 75 C. Phase B was prepared and heated to 75° C. Phase B is then combined with the Phase A mixture with continuous stirring. The combination was subsequently homogenized for 2-3 minutes, and the batch cooled to 45° C. Phases C and were separately prepared and then mixed with the cooled batch until uniform.
As with Example 6, each was exposed to irradiation for various durations and the photostability tested. As evidenced from the results shown in Table 7, the stabilizer compound of the present invention performed markedly better than that of the conventional photostabilizer in the formulated product.

Data set [2] in a line: Stability of HSS in the presence of iron and copper ions (UV absorbance at 319 nm). To be noted: acetate buffer pH 6.5/ethanol, room temperature. Format: physicochemical. As to the method:
A base buffer solution was prepared by dissolving 13.608 g of sodium acetate in 1000 ml water and then adjusting the pH to 6.5 with acetic acid to form a 0.1 M acetate solution and then combining 75 parts by weight of this solution with 25 parts by weight ethanol.
A copper sulfate solution was prepared by dissolving 24.968 mg of copper sulfate (CuSO4.5H2O) in 100 ml of the base buffer solution.
A ferric sulfate solution was prepared by dissolving 16.22 mg of […] in 100 ml of the base buffer solution.
Finally a 100 μM test solution of HSS was prepared by dissolving 27.8 mg of HSS in 10 ml of the base buffer solution and then diluting 0.1 ml of this solution to 10 ml with additional base buffer solution.
Two test solutions were prepared as follows:
Copper Stability: 0.1 ml of the 100 μM solution of HSS was combined with 0.1 ml of the 10 μM CuSO4 solution in a 10 ml volumetric flask and additional base buffer solution added to make up to volume (to 10 ml). […]
The two test solutions and a sample of the HSS solution were then evaluated to assess what, if any, auto-oxidation of the HSS occurred in the presence of Cu^2+ and Fe^3+ ions. Stability or instability was evaluated by monitoring the absorbance at 319 nm for HSS at room temperature using a Shimadzu spectrophotometer.

For the molecule `COc1cc(C=C(C(C)=O)C(C)=O)cc(OC)c1OC` [HSS, 3-(3,4,5-trimethoxybenzylidene)-2,4-pentanedione], the “photostability of sunscreen formulation (% remaining)” value in data set [1] (UV dose 0 Joules/cm^2) is on record as 100%; in data set [1] (UV dose 20 Joules/cm^2) it was 96%; in data set [1] (UV dose 40 Joules/cm^2), 92%; in data set [1] (UV dose 60 Joules/cm^2), 88%. Besides, the “stability (auto-oxidation) in the presence of iron and copper ions” value in data set [2] was “stable irrespective of the presence of iron and copper ions”.
